# Test results from patent US10738024B2, “Compounds for treatment of angiogenesis-mediated diseases” (Indiana University Research and Technology Corporation, priority 2013, dated 2020).
# Entries after “also recorded” stand apart in the source; their conditions may differ.
# Experiments:
# Assay type in all cases: cell-based, human
# HUVECs = experiment: EdU incorporation (DNA synthesis) in HUVECs; conditions: 24 hours treatment, 10 μM EdU pulse; listed as SH-11052 (2)
# Procedure: In order to confirm the inhibition of cell proliferation, incorporation of 5-ethynyl-2′-deoxyuridine (EdU) into endothelial cells in the presence of SH-11052 (2) was further monitored. Particularly, cells (25,000 per coverslip) were seeded onto coverslips coated with Attachment Factor (Cell Systems, Kirkland, Wash., USA) placed in a 6-well plate and incubated with the indicated concentrations of SH-11052 (2) in EGM-2 for 24 hours at 37° C. and 5% CO2. The cells were then serum starved for 8 hours and the medium was replaced with EGM-2 containing 10 μM EdU. The plate was further incubated for another 8 hours before processing the cells for detection of labeled DNA (according to the manufacturer's instructions for the Click-iT EdU assay kit). Images were taken using an EVOS fluorescence microscope (AMG, Mill Creek, Wash., USA) and the number of DAPI stained and EdU stained cells were counted in six randomly chosen fields using ImageJ software.
# IκB-α = experiment: TNF-α-mediated degradation of IκB-α in HRECs (immunoblot); conditions: 20 ng/ml TNF-α, 20 minutes
# Procedure: (§1) HRECs were seeded at 10^5 cells/well in a 6-well plate and after 24 hours of incubation at 37° C., cells were serum starved in 0.1% serum-EBM-2 for 8 hours. Cells were then treated with the indicated concentrations of SH-11052 (2) for one hour before the addition of 20 ng/ml of TNF-α. After 20 minutes, cells were lysed in NP-40 Lysis buffer containing 25 mM HEPES pH 7.4, 1% NP-40, 150 mM NaCl, 10% glycerol, 1 mM sodium orthovanadate, 10 mM sodium fluoride, 1 mM sodium pyrophosphate, 1 mM PMSF, 2.5 mg/ml aprotinin, 1 mM pepstatin, and 1 mM leupeptin. Equal amounts of proteins (80 μg), as measured by a Bradford assay, were run on 10% SDS-PAGE, transferred to PVDF membrane, blocked with 5% BSA in TBS-0.05% Tween-20 and immunoblotted with the indicated primary antibodies (1:1000 in 1% BSA in TBS-0.05% Tween-20) overnight at 4° C. After three washes in TBS-0.05% Tween-20, HRP-conjugated secondary antibodies (1:5000 in 5% BSA in TBS-0.05% Tween-20) were applied for one hour at room temperature. After three washes, the protein bands were detected and densitized using ECL Prime western blot detection reagent (GE Life Sciences, Piscataway, N.J., USA) and an XRS gel documentation system running Quantity One software (Bio-Rad). Target protein band intensity was normalized to housekeeping gene α-tubulin. […]
# IL8 = experiment: qRT-PCR of NF-κB target gene IL8 in TNF-α challenged cells; conditions: 10 ng/ml TNF-α for 24 hours; listed as SH-11052 (2)
# Procedure: (§2) Similarly, the mRNA expression of the pro-inflammatory molecules IL8, PTGS2 (COX2) and CCL2 (MCP-1), inducible by NF-κB, were analyzed in the presence of SH-11052 (2). Cells (10^5 per well) were seeded in a 6-well plate and incubated for 24 hours at 37° C. and 5% CO2. The cells were then starved in 0.1% serum-EBM-2 for 12 hours followed by incubation for an hour in the presence of different concentrations of SH-11052 (2). The cells were then challenged for 24 hours with 10 ng/ml TNF-α. Following incubation, cells were lysed and RNA was isolated using Trizol reagent (Life Technologies). cDNA was prepared from 80 ng total RNA using random primers and M-MuLV Reverse Transcriptase (New England Biolabs, Ipswich, Mass., USA). RT-PCR reactions were set up using the TaqMan Fast Gene Expression Assay Kit according to the manufacturer's instructions. FAM-labeled TaqMan probes for PTGS2 (Hs00153133_m1), CCL2 (Hs00234140_m1), IL8 (Hs00174103_m1), and control, TBP (Hs99999910_m1), genes were used to monitor the expression levels of these genes. The qRT-PCR plate was read in a ViiATM 7 qPCR system (Life Technologies) and the data were analyzed using the ΔΔCt method. The expression levels of genes were normalized to TBP gene expression and calibrated to the DMSO-treated, unstimulated sample.
# VEGFR2 = experiment: Phosphorylation of VEGFR2 in HRECs upon VEGF stimulation (immunoblot); conditions: 100 ng/ml VEGF, 20 minutes
# Procedure: as §1, with “of 100” for “of 20”, “ng/ml VEGF.” for “ng/ml of TNF-α.”
# PTGS2 (COX2) = experiment: qRT-PCR of NF-κB target gene PTGS2 in TNF-α challenged cells; conditions: 10 ng/ml TNF-α for 24 hours; listed as SH-11052 (2)
# Procedure: as §2
# Akt = experiment: Phosphorylation of Akt in HRECs upon VEGF stimulation (immunoblot); conditions: 100 ng/ml VEGF, 20 minutes
# Procedure: as §1, with “of 100” for “of 20”, “ng/ml VEGF.” for “ng/ml of TNF-α.”
compound,measurement,setting,value
"COc1ccc(CC2COc3cc(OC)c(O)c(O)c3C2=O)cc1O (single isomer, unassigned) [Compound 2]",DNA synthesis (EdU incorporation) in HUVECs,HUVECs,blocked EdU incorporation; also recorded: significantly inhibited in a dose dependent manner
same,TNF-α-mediated degradation of IκB-α,IκB-α,significantly decreased in a dose dependent manner
same,mRNA expression of IL8,IL8,decreased the expression
same,phosphorylation of VEGFR2,VEGFR2,did not inhibit phosphorylation
same,mRNA expression of PTGS2 (COX2),PTGS2 (COX2),decreased the expression
same,activation (phosphorylation) of Akt,Akt,inhibited activation
